In one series the test system is diabetic (ob/ob) mice. The experiment in a line: Blood glucose lowering in diabetic (ob/ob) mice. It counts as in vivo, mouse. The conditions noted are these: dose 100 mg/Kg, plasma glucose. The source says: The procedures used and results obtained are briefly described below.
The non-insulin dependent diabetic (NIDDM) syndrome can be typically characterizes by obesity, hyperglycemia, abnormal insulin secretion, hyperinsulinemia and insulin resistance.
In each test procedure, mice [Male or female ob/ob (C57 B1/6J) and their lean litermates (ob/+ or +/+, Jackson Laboratories) ages 2 to 5 months (10 to 65 g)] of a similar age were randomized according to body weight into 4 groups of 10 mice. The mice were housed 5 per cage and are maintained on normal rodent chow with water ad libitum. Mice received test compound daily by gavage (suspended in 0.5 ml of 0.5% methyl cellulose); dissolved in the drinking water; or admixed in the diet. The dose of compounds given ranges from 2.5 to 200 mg/kg body weight/day. The dose is calculated based on the fed weekly body weight and is expressed as active moiety. […]
On the morning of Day 4, 7 or 14 two drops of blood (approximately 50 ul) were collected into sodium fluoride containing tubes either from the tail vein or after decapitation. […] The plasma was isolated by centrifugation and the concentration of glucose is measured enzymatically on an Abbott V.P. Analyzer.
For each mouse, the percentage change in plasma glucose on Day 4, 7 or 14 is calculated relative to the mean plasma glucose of the vehicle treated mice. […]

Another series deals with T1, Human recombinant PTP1B (Homo sapiens, UniProt P18031).
T1 construct: made in house
T1 sequence (P18031 1-435): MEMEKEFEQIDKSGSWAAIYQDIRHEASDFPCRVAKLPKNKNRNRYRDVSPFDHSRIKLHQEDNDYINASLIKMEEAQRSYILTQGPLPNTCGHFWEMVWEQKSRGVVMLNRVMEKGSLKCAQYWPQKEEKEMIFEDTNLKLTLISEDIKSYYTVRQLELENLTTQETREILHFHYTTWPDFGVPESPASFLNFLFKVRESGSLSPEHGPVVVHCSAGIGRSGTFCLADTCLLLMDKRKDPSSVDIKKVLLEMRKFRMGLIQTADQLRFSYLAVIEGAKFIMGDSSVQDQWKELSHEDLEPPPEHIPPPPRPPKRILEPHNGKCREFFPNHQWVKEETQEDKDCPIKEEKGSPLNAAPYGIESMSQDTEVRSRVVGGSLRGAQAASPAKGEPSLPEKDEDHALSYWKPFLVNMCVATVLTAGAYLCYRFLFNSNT
It is filed as biochemical. The conditions noted are these: for IC50: recombinant PTP1B, malachite green phosphate detection; for percent of phosphatase control (change) at single concentration: compound at 2.5 uM.

The subject of series [1] is rat hepatic microsomal PTPases. Conditions: PTPase activity, compound at 50 μM, rat liver microsomes. For orientation: Liver microsomes are a subcellular fraction often used to study metabolism.

Here are results for 18 molecules from patent publication US6699896B1, “Oxazole-aryl-carboxylic acids useful in the treatment of insulin resistance and hyperglycemia” (Wyeth, priority 1998, dated 2004).

As a reminder, the melting point is the temperature, or range, at which the solid turns liquid. Usually IC50 stands for the concentration needed to halve the response being measured.

Marks after values point to notes of the source that are not given here.

As to `CC1(COc2ccc(CC3SC(=O)NC3=O)cc2)CCCCC1` (stereo not drawn) [Ciglitazone, 5-(4-(1-methylcyclohexylmethoxy)benzyl)-2,4-dione, reference compound], in the series on diabetic (ob/ob) mice, the “% Change Glucose from Vehicle” value is listed as −43%.

The molecule `COc1ccc(-c2ccc(-c3nc(-c4ccc(C(F)(F)F)cc4)oc3C)cc2)cc1` [Example 1, 4-(4′-Methoxy-biphenyl-4-yl)-5-methyl-2-(4-trifluoromethyl-phenyl)-oxazole] yielded a melting point of 167 to 168 °C. In addition, the IC50 at Human recombinant PTP1B amounted to 1660 nM.

With `COc1ccc(-c2cccc(-c3nc(-c4ccc(C(F)(F)F)cc4)oc3C)c2)cc1` [Example 2, 4-(4′-Methoxy-biphenyl-3-yl)-5-methyl-2-(4-trifluoromethyl-phenyl)-oxazole], the melting point fell in the range of 93 to 94 °C. The “percent of phosphatase control (change) at single concentration” value (shortened to “percent of phosphatase control (change)”) at Human recombinant PTP1B is −47 (2.5 uM) %.

`Cc1oc(-c2ccc(C(F)(F)F)cc2)nc1-c1ccc(-c2ccc(O)cc2)cc1` [Example 3, 4′-[5-Methyl-2-(4-trifluoromethyl-phenyl)-oxazol-4-yl]-biphenyl-4-ol]: the “percent of phosphatase control (change)” value on Human recombinant PTP1B is recorded as −56 (2.5 uM) %.

With `Cc1oc(-c2ccc(C(F)(F)F)cc2)nc1-c1cccc(-c2ccc(O)cc2)c1` [Example 4, 3′-[5-Methyl-2-(4-trifluoromethyl-phenyl)-oxazol-4-yl]-biphenyl-4-ol], the “% Change from Control” value in series [1] is −28%.

As for `Cc1oc(-c2ccc(C(F)(F)F)cc2)nc1-c1ccc(-c2ccc(OCC(=O)O)cc2)cc1` [Example 5, {4′-[5-Methyl-2-(4-trifluoromethyl-phenyl)-oxazol-4-yl]-biphenyl-4-yloxy}-acetic Acid], the concentration for half-maximal inhibition (IC50) on Human recombinant PTP1B was 850 nM. The “% Change Glucose from Vehicle” value with diabetic (ob/ob) mice was −40^a %.

Turning to `Cc1oc(-c2ccc(C(F)(F)F)cc2)nc1-c1ccc(-c2ccc(OC(Cc3ccccc3)C(=O)O)cc2)cc1` (stereo not drawn) [Example 7, 2-{4′-[5-Methyl-2-(4-trifluoromethyl-phenyl)-oxazol-4-yl]-biphenyl-4-yloxy}-3-phenyl-propionic Acid], the “% Change from Control” value in series [1] is on record as −74%. The IC50 at Human recombinant PTP1B was determined as 1290 nM.

For `Cc1oc(-c2ccc(C(F)(F)F)cc2)nc1-c1cccc(-c2ccc(OC(Cc3ccccc3)C(=O)O)cc2)c1` (stereo not drawn) [Example 8, 2-{3′-[5-Methyl-2-(4-trifluoromethyl-phenyl)-oxazol-4-yl]-biphenyl-4-yloxy}-3-phenyl-propionic Acid], in series [1], the “% Change from Control” value is recorded as −78%. The concentration for half-maximal inhibition (IC50) on Human recombinant PTP1B is 1250 nM.

In the case of `Cc1oc(-c2ccc(C(F)(F)F)cc2)nc1-c1ccc(-c2cc(Br)c(O)c(Br)c2)cc1` [Example 9, 3,5-Dibromo-4′-[5-methyl-2-(4-trifluoromethyl-phenyl)-oxazol-4-yl]-biphenyl-4-ol], the “% Change from Control” value in series [1] is recorded as −20%. On Human recombinant PTP1B, the IC50 stood at 650 nM.

Take `Cc1oc(-c2ccc(C(F)(F)F)cc2)nc1-c1ccc(-c2cc(Br)c(OCC(=O)O)c(Br)c2)cc1` [Example 10, {3,5-Dibromo-4′-[5-methyl-2-(4-trifluoromethyl-phenyl)-oxazol-4-yl]-biphenyl-4-yloxy}-acetic Acid]: the “% Change from Control” value in series [1] is reported as −35%. The IC50 at Human recombinant PTP1B was 470 nM.

Take `COC(=O)C(Cc1ccccc1)Oc1c(Br)cc(-c2ccc(-c3nc(-c4ccc(C(F)(F)F)cc4)oc3C)cc2)cc1Br` (stereo not drawn) [Example 11, 2-{3,5-Dibromo-4′-[5-methyl-2-(4-trifluoromethyl-phenyl)-oxazol-4-yl]-biphenyl-4-yloxy}-3-phenyl-propionic Acid Methyl Ester]: the melting point fell in the range of 70 to 72 °C. Also, the “percent of phosphatase control (change)” value at Human recombinant PTP1B was −40 (2.5 uM) %.

As for `Cc1oc(-c2ccc(C(F)(F)F)cc2)nc1-c1ccc(-c2cc(Br)c(OC(Cc3ccccc3)C(=O)O)c(Br)c2)cc1` (stereo not drawn) [Example 12, 2-{3,5-Dibromo-4′-[5-methyl-2-(4-trifluoromethyl-phenyl)-oxazol-4-yl]-biphenyl-4-yloxy}-3-phenyl-propionic Acid], the “% Change from Control” value in series [1] is recorded as −68%. On Human recombinant PTP1B, the 50% inhibitory concentration (IC50) is 130 nM.

`Cc1oc(-c2ccc(C(F)(F)F)cc2)nc1-c1ccc(-c2ccc(Cn3oc(=O)[nH]c3=O)cc2)cc1` [Example 13, 2-{4′-[5-Methyl-2-(4-trifluoromethyl-phenyl)-oxazol-4-yl]-biphenyl-4-ylmethyl}-[1,2,4]oxadiazolidine-3,5-dione] gave a melting point of 196 to 198 °C. Further, the 50% inhibitory concentration (IC50) at Human recombinant PTP1B was found to be 1150 nM.

`Cc1oc(-c2ccc(C(F)(F)F)cc2)nc1-c1ccc(-c2cccc(Cn3oc(=O)[nH]c3=O)c2)cc1` [Example 14, 2-{4′-[5-Methyl-2-(4-trifluoromethyl-phenyl)-oxazol-4-yl]-biphenyl-3-ylmethyl}-[1,2,4]oxadiazolidine-3,5-dione]: the melting point is 216 to 218 °C. Besides, on Human recombinant PTP1B, the “percent of phosphatase control (change)” value is on record as −65 (2.5 uM) %.

As to `Cc1oc(-c2ccc(C(F)(F)F)cc2)nc1-c1ccc(-c2ccc(OCc3nnn[nH]3)cc2)cc1` [Example 15, 5-{4′-[-Methyl-2-(4-trifluoromethyl-phenyl)-oxazol-4-yl]-biphenyl-4-yloxymethyl}-1H-tetrazole], the melting point was 226 to 227 °C. The “% Change from Control” value in series [1] is listed as −47%. For the same molecule, the concentration for half-maximal inhibition (IC50) at Human recombinant PTP1B turned out to be 930 nM.

For `Cc1oc(-c2ccc(C(F)(F)F)cc2)nc1-c1ccc2c(Br)c(OCC(=O)O)ccc2c1` [Example 16, {1-Bromo-6-[5-methyl-2-(4-trifluoromethyl-phenyl)-oxazol-4-yl]-naphthalen-2-yloxy}-acetic Acid], the “% Change from Control” value in series [1] is recorded as −20%. In addition, the IC50 on Human recombinant PTP1B amounted to 1200 nM.

On to `Cc1oc(-c2ccc(C(F)(F)F)cc2)nc1-c1ccc2c(Br)c(OC(Cc3ccccc3)C(=O)O)ccc2c1` (stereo not drawn) [Example 17, 2-{1-Bromo-6-[5-methyl-2-(4-trifluoromethyl-phenyl)-oxazol-4-yl]-naphthalen-2-yloxy}-3-phenyl-propionic Acid], for which the “% Change from Control” value in series [1] is reported as −54%. For the same molecule, at Human recombinant PTP1B, the IC50 is 980 nM.

Take “Ammonium molybdate tetrahydrate [reference compound]”: the half-inhibitory concentration (IC50) at Human recombinant PTP1B was 8700 nM.
